Data: ChEMBL document CHEMBL1149530, “Design and synthesis of a new, conformationally constrained, macrocyclic small-molecule inhibitor of STAT3 via 'click chemistry'” (Bioorg Med Chem Lett, 2007)
Where a SMILES comes first, the peptide text is derived from it. Bridges are numbered along the chain shown (N, C = ends). Triazole bridges read from a SMILES are 1,4-linked. [ ]: non-standard residue; d: D form. pY = N[C@@H](Cc1ccc(OP(=O)(O)O)cc1)C(=O)O; Lys(N3) = [N-]=[N+]=NCCCC[C@H](N)C(=O)O; Pra = C#CC[C@H](N)C(=O)O

Target: Signal transducer and activator of transcription 3 (Homo sapiens, UniProt P40763)
Experiment: Binding affinity to recombinant STAT3 by fluorescence polarization based binding assay

Chain of Signal transducer and activator of transcription 3 (P40763 whole entry): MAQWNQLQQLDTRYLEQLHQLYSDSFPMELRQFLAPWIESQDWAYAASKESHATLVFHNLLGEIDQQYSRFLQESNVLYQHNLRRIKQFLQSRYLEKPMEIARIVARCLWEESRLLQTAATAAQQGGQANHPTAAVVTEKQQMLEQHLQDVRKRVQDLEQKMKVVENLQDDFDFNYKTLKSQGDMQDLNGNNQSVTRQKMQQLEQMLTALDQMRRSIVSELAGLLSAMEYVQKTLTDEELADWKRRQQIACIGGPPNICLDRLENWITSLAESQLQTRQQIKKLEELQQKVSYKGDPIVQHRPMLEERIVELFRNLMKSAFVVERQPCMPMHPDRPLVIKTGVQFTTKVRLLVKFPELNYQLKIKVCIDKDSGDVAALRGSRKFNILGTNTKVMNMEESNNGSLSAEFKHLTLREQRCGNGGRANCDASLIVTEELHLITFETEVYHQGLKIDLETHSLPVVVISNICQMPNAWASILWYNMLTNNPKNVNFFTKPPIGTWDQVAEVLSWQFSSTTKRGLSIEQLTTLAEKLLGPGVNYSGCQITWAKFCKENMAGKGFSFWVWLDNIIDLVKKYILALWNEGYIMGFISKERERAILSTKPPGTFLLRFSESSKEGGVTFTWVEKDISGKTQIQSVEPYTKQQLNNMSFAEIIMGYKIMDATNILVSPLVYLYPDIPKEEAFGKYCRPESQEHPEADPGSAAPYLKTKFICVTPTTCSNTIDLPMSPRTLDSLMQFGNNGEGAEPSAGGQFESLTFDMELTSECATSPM

| Compound | Ki [µM] |
| --- | --- |
| CC(=O)N[C@@H](Cc1ccc(OP(=O)(O)O)cc1)C(=O)N[C@@H](CC(C)C)C(=O)N[C@H]1CCCCn2cc(nn2)C[C@@H](C(=O)N[C@@H](Cc2ccccc2)C(N)=O)NC(=O)[C@H]([C@@H](C)O)NC1=O (Ac-[pY]L[Lys(N3)]T[Pra]F-NH2; triazole 3-5) | 7.3 |
| CC(=O)N[C@@H](Cc1ccc(OP(=O)(O)O)cc1)C(=O)N[C@@H](CC(C)C)C(=O)N[C@@H](CCCCN)C(=O)N[C@H](C(=O)N[C@@H](CCCCN)C(=O)N[C@@H](Cc1ccccc1)C(N)=O)[C@@H](C)O (HELM PEPTIDE1{[ac].[O=C([C@H](Cc1ccc(OP(=O)(O)O)cc1)N[*:1])[*:2]].L.K.T.K.F.[am]}$$$$V2.0) | 25.9 |
